Laboratory results reported in patent US12558428B2, “Heterobifunctional compounds and their use in treating disease” (Halda Therapeutics OpCo, Inc., priority 2024, dated 2026).

How the values were obtained:
[1] = test system: T-Rex 293 cells having increased expression of estrogen receptor alpha protein; assay: Cellular growth inhibition assay, T-Rex 293 cells, (+) doxycycline; assay type: cell-based; conditions: T-REx-293, 72 h, T-Rex 293 cells with doxycycline-induced ERα expression, 72 hours, CellTiter-Glo 2.0; read-out: (+) Dox TRex ERa (GI50)
Outline: (§1)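 Viability read-out was CellTiter-Glo 2.0 luminescence after 72 h compound exposure, normalized to zero luminescence and fitted by four-parameter regression to give GI50. Cells were an ERα-inducible T-Rex 293 clone cultured with or without 3 ng/mL doxycycline in charcoal-stripped, phenol red-free medium.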

[2] = test system: T-Rex 293 cells lacking increased expression of estrogen receptor alpha protein; assay: Cellular growth inhibition assay, T-Rex 293 cells, (−) doxycycline; assay type: cell-based; conditions: T-REx-293, 72 h, T-Rex 293 cells without doxycycline, 72 hours, CellTiter-Glo 2.0; read-out: (−) Dox TRex ERa (GI50)
Outline: as §1

[3] = target: T1, BRD4-BD1 (Homo sapiens, UniProt O60885); assay: Binding affinity to BRD4-BD1 (bromoKdELECT assay)
T1 construct: made in house; host or cells: T7 phage grown in E. coli host derived from BL21
Method: Exemplary compounds were tested for ability to bind to BRD4-BD 1.
Compounds were tested using a bromoKdELECT assay. T7 phage strains displaying bromodomains were grown in parallel in 24-well blocks in an E. coli host derived from the BL21 strain. E. coli were grown to log-phase and infected with T7 phage from a frozen stock (multiplicity of infection=0.4) and incubated with shaking at 32° C. until lysis (90-150 minutes). The lysates were centrifuged (5,000×g) and filtered ([…]) to remove cell debris. […] The liganded beads were blocked with excess biotin and washed with blocking buffer (SeaBlock (Pierce), 1% BSA, 0.05% Tween 20, 1 mM DTT) to remove unbound ligand and to reduce nonspecific phage binding. […] Test compounds were prepared as 1000× stocks in 100% DMSO. Kds were determined using an 11-point 3-fold compound dilution series with one DMSO control point. […] The compounds were then diluted directly into the assays such that the final concentration of DMSO was 0.09%. All reactions performed in polypropylene 384-well plates. Each was a final volume of 0.02 ml. […] The bromodomain concentration in the eluates was measured by qPCR.

SMILES	GI50 [1]	GI50 [2]	Kd [3]
CCN(CCCCCCCCNC(=O)C[C@@H]1N=C(c2ccc(Cl)cc2)c2c(sc(C)c2C)-n2c(C)nnc21)CCOc1ccc(C(=O)c2c(-c3ccc(O)cc3)sc3cc(O)ccc23)cc1 [I-2, (S)-2-(4-(4-chlorophenyl)-2,3,9-trimethyl-6H-thieno[3,2-f][1,2,4]triazolo[4,3-a][1,4]diazepin-6-yl)-N-(8-(ethyl(2-(4-(6-hydroxy-2-(4-hydroxyphenyl)benzo[b]thiophene-3-carbonyl)phenoxy)ethyl)amino)octyl)acetamide]	0.05 to 0.5 µM	0.05 to 0.5 µM	0.05 to 0.5 µM
CCN(CCOCCOCCNC(=O)C[C@@H]1N=C(c2ccc(Cl)cc2)c2c(sc(C)c2C)-n2c(C)nnc21)CCOc1ccc(C(=O)c2c(-c3ccc(O)cc3)sc3cc(O)ccc23)cc1 [I-3, (S)-2-(4-(4-chlorophenyl)-2,3,9-trimethyl-6H-thieno[3,2-f][1,2,4]triazolo[4,3-a][1,4]diazepin-6-yl)-N-(2-(2-(2-(ethyl(2-(4-(6-hydroxy-2-(4-hydroxyphenyl)benzo[b]thiophene-3-carbonyl)phenoxy)ethyl)amino)ethoxy)ethoxy)ethyl) acetamide]	0.05 to 0.5 µM	0.5 to 2.5 µM	< 0.05 µM
